The results in this text go back to US12441691B2 (Cytokinetics, Inc., priority 2020, dated 2025).

For the test, the system named is rabbit skeletal myofibrils (fast skeletal myofibrils). The experiment in a line: Activation of fast skeletal myofibrils (PUMA assay, AC1.4). It is filed as biochemical. The settings on record: calcium at pCa25, AC1.4 = concentration at which the compound increased the enzymatic activity. The method, boiled down:
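Detergent-washed rabbit psoas myofibrils (~90% fast fibers), calcium set to give 25% of maximal rate (pCa25). ATPase followed by pyruvate kinase/lactate dehydrogenase-coupled NADH oxidation, absorbance at 340 nm. PM12 buffer: 12 mM PIPES, 2 mM MgCl2, 1 mM DTT, pH 6.8.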

For `Cc1nsc(N2Cc3ccccc3NC(=O)[C@@H]2C(C)C)n1` [Compound 324, (S)-3-isopropyl-4-(3-methyl-1,2,4-thiadiazol-5-yl)-1,3,4,5-tetrahydro-2H-benzo[e][1,4]diazepin-2-one], the AC1.4 was determined as 1.16 µM.

As to `CC(C)[C@H]1C(=O)Nc2ccccc2CN1C(=O)N(C)C` [Compound 325, (S)-3-isopropyl-N,N-dimethyl-2-oxo-1,2,3,5-tetrahydro-4H-benzo[e][1,4]diazepine-4-carboxamide], the AC1.4 amounted to 1.81 µM.

As for `CC(=O)N1Cc2ccccc2NC(=O)[C@@H]1C(C)C` [Compound 326, (S)-4-acetyl-3-isopropyl-1,3,4,5-tetrahydro-2H-benzo[e][1,4]diazepin-2-one], the AC1.4 stood at 4.38 µM.

Regarding `CC(C)[C@H]1C(=O)Nc2ccccc2CN1C(=O)c1cc[nH]c(=O)c1` [Compound 327, (S)-3-isopropyl-4-(2-oxo-1,2-dihydropyridine-4-carbonyl)-1,3,4,5-tetrahydro-2H-benzo[e][1,4]diazepin-2-one], the AC1.4 was determined as 1.50 µM.

Consider `CC(C)[C@H]1C(=O)Nc2ccccc2CN1C(=O)c1cnn(CCO)c1` [Compound 328, (S)-4-(1-(2-hydroxyethyl)-1H-pyrazole-4-carbonyl)-3-isopropyl-1,3,4,5-tetrahydro-2H-benzo[e][1,4]diazepin-2-one], for which the AC1.4 came to 2.56 µM.

Regarding `CC(C)[C@H]1C(=O)Nc2ccccc2CN1C(=O)c1ccc(C(N)=O)[nH]1` [Compound 329, (S)-5-(3-isopropyl-2-oxo-2,3,4,5-tetrahydro-1H-benzo[e][1,4]diazepine-4-carbonyl)-1H-pyrrole-2-carboxamide], the AC1.4 was 0.20 µM.

Turning to `COCCn1cc(C(=O)N2Cc3ccccc3NC(=O)[C@@H]2C(C)C)cn1` [Compound 330, (S)-3-isopropyl-4-(1-(2-methoxyethyl)-1H-pyrazole-4-carbonyl)-1,3,4,5-tetrahydro-2H-benzo[e][1,4]diazepin-2-one], the AC1.4 worked out at 1.71 µM.

As for `CC(C)[C@H]1C(=O)Nc2ccccc2CN1C(=O)c1cn[nH]c1` [Compound 331, (S)-3-isopropyl-4-(1H-pyrazole-4-carbonyl)-1,3,4,5-tetrahydro-2H-benzo[e][1,4]diazepin-2-one], the AC1.4 was found to be 1.03 µM.

Consider `CC(C)[C@H]1C(=O)Nc2ccccc2CN1C(=O)N1CC(O)C1` [Compound 332, (S)-4-(3-hydroxyazetidine-1-carbonyl)-3-isopropyl-1,3,4,5-tetrahydro-2H-benzo[e][1,4]diazepin-2-one], for which the AC1.4 was 2.37 µM.

As for `CC(C)[C@H]1C(=O)Nc2ccccc2CN1S(=O)(=O)N(C)C` [Compound 333, (S)-3-isopropyl-N,N-dimethyl-2-oxo-1,2,3,5-tetrahydro-4H-benzo[e][1,4]diazepine-4-sulfonamide], the AC1.4 was determined as 2.44 µM.

Consider `CC(C)[C@H]1C(=O)Nc2ccccc2CN1c1c(N)c(=O)c1=O` [Compound 334, (S)-3-amino-4-(3-isopropyl-2-oxo-1,2,3,5-tetrahydro-4H-benzo[e][1,4]diazepin-4-yl)cyclobut-3-ene-1,2-dione], for which the AC1.4 stood at 0.65 µM.

Turning to `CNC(=O)N1Cc2ccccc2NC(=O)[C@@H]1C(C)C` [Compound 335, (S)-3-isopropyl-N-methyl-2-oxo-1,2,3,5-tetrahydro-4H-benzo[e][1,4]diazepine-4-carboxamide], the AC1.4 was 3.75 µM.

Take `CC[C@H](C)[C@H]1C(=O)Nc2cccc(F)c2CN1/C(N)=N\C#N` [Compound 336, (S,Z)-3-((S)-sec-butyl)-N′-cyano-6-fluoro-2-oxo-1,2,3,5-tetrahydro-4H-benzo[e][1,4]diazepine-4-carboximidamide]: the AC1.4 was 0.12 µM.

Take `CC[C@H](C)[C@H]1C(=O)Nc2cccc(F)c2CN1C(=O)N1CC(O)C1` [Compound 337, (S)-3-((S)-sec-butyl)-6-fluoro-4-(3-hydroxyazetidine-1-carbonyl)-1,3,4,5-tetrahydro-2H-benzo[e][1,4]diazepin-2-one]: the AC1.4 is 0.72 µM.

In the case of `CC[C@H](C)[C@H]1C(=O)Nc2cccc(F)c2CN1C(=O)NC` [Compound 338, (S)-3-((S)-sec-butyl)-6-fluoro-N-methyl-2-oxo-1,2,3,5-tetrahydro-4H-benzo[e][1,4]diazepine-4-carboxamide], the AC1.4 is 0.69 µM.

For the molecule `CC[C@H](C)[C@H]1C(=O)Nc2cccc(F)c2CN1C(=O)CCO` [Compound 339, (S)-3-((S)-sec-butyl)-6-fluoro-4-(3-hydroxypropanoyl)-1,3,4,5-tetrahydro-2H-benzo[e][1,4]diazepin-2-one], the AC1.4 was determined as 2.79 µM.

`CC[C@H](C)[C@H]1C(=O)Nc2cccc(F)c2CN1C(=O)N1CC[C@H](O)C1` [Compound 340, (S)-3-((S)-sec-butyl)-6-fluoro-4-((S)-3-hydroxypyrrolidine-1-carbonyl)-1,3,4,5-tetrahydro-2H-benzo[e][1,4]diazepin-2-one]: the AC1.4 is 3.00 µM.

Take `CC[C@H](C)[C@H]1C(=O)Nc2ccc(F)cc2CN1C(=O)CO` [Compound 341, (S)-3-((S)-sec-butyl)-7-fluoro-4-(2-hydroxyacetyl)-1,3,4,5-tetrahydro-2H-benzo[e][1,4]diazepin-2-one]: the AC1.4 was 2.37 µM.

For `CC[C@H](C)[C@H]1C(=O)Nc2ccc(F)cc2CN1C(=O)c1cn[nH]c1` [Compound 342, (S)-3-((S)-sec-butyl)-7-fluoro-4-(1H-pyrazole-4-carbonyl)-1,3,4,5-tetrahydro-2H-benzo[e][1,4]diazepin-2-one], the AC1.4 turned out to be 0.27 µM.

In the case of `CC[C@H](C)[C@H]1C(=O)Nc2ccc(F)cc2CN1C(=O)c1ncn[nH]1` [Compound 343, (S)-3-((S)-sec-butyl)-7-fluoro-4-(1H-1,2,4-triazole-5-carbonyl)-1,3,4,5-tetrahydro-2H-benzo[e][1,4]diazepin-2-one], the AC1.4 came to 0.25 µM.

As for `CC[C@H](C)[C@H]1C(=O)Nc2ccc(F)cc2CN1C(=O)c1cccc(=O)[nH]1` [Compound 344, (S)-3-((S)-sec-butyl)-7-fluoro-4-(6-oxo-1,6-dihydropyridine-2-carbonyl)-1,3,4,5-tetrahydro-2H-benzo[e][1,4]diazepin-2-one], the AC1.4 is 1.91 µM.

Take `CC[C@H](C)[C@H]1C(=O)Nc2ccc(F)cc2CN1S(N)(=O)=O` [Compound 345, (S)-3-((S)-sec-butyl)-7-fluoro-2-oxo-1,2,3,5-tetrahydro-4H-benzo[e][1,4]diazepine-4-sulfonamide]: the AC1.4 came to 2.43 µM.

On to `CC[C@H](C)[C@H]1C(=O)Nc2ccc(F)cc2CN1C(=O)N1CC(C)(O)C1` [Compound 346, (S)-3-((S)-sec-butyl)-7-fluoro-4-(3-hydroxy-3-methylazetidine-1-carbonyl)-1,3,4,5-tetrahydro-2H-benzo[e][1,4]diazepin-2-one], for which the AC1.4 was determined as 1.57 µM.

Turning to `CC[C@H](C)[C@H]1C(=O)Nc2ccc(F)cc2CN1C(=O)N1CC[C@H](O)C1` [Compound 347, (S)-3-((S)-sec-butyl)-7-fluoro-4-((S)-3-hydroxypyrrolidine-1-carbonyl)-1,3,4,5-tetrahydro-2H-benzo[e][1,4]diazepin-2-one], the AC1.4 stood at 3.59 µM.

Turning to `CC[C@H](C)[C@H]1C(=O)Nc2ccc(F)cc2CN1C(=O)NC` [Compound 348, (S)-3-((S)-sec-butyl)-7-fluoro-N-methyl-2-oxo-1,2,3,5-tetrahydro-4H-benzo[e][1,4]diazepine-4-carboxamide], the AC1.4 came out at 0.72 µM.

Regarding `CC[C@H](C)[C@H]1C(=O)Nc2ccc(F)cc2CN1C(=O)N[C@H]1CCN(CCO)C1` [Compound 349, (S)-3-((S)-sec-butyl)-7-fluoro-N-((S)-1-(2-hydroxyethyl)pyrrolidin-3-yl)-2-oxo-1,2,3,5-tetrahydro-4H-benzo[e][1,4]diazepine-4-carboxamide], the AC1.4 amounted to 1.57 µM.

In the case of `CC[C@H](C)[C@H]1C(=O)Nc2ccc(F)cc2CN1C(=O)N[C@H]1CCN(C)C1` [Compound 350, (S)-3-((S)-sec-butyl)-7-fluoro-N-((S)-1-methylpyrrolidin-3-yl)-2-oxo-1,2,3,5-tetrahydro-4H-benzo[e][1,4]diazepine-4-carboxamide], the AC1.4 was found to be 1.11 µM.

As for `CC[C@H](C)[C@H]1C(=O)Nc2ccc(F)cc2CN1C(=O)NC1CCN(CCO)CC1` [Compound 351, (S)-3-((S)-sec-butyl)-7-fluoro-N-(1-(2-hydroxyethyl)piperidin-4-yl)-2-oxo-1,2,3,5-tetrahydro-4H-benzo[e][1,4]diazepine-4-carboxamide], the AC1.4 turned out to be 1.17 µM.

For `CC[C@H](C)[C@H]1C(=O)Nc2ccc(F)cc2CN1C(=O)N[C@H]1CC[C@H](O)CC1` [Compound 352, (S)-3-((S)-sec-butyl)-7-fluoro-N-((1r,4S)-4-hydroxycyclohexyl)-2-oxo-1,2,3,5-tetrahydro-4H-benzo[e][1,4]diazepine-4-carboxamide], the AC1.4 is 0.73 µM.

On to `CC[C@H](C)[C@H]1C(=O)Nc2ccc(F)cc2CN1C(=O)N[C@H]1CC[C@H](O)C1` [Compound 353, (S)-3-((S)-sec-butyl)-7-fluoro-N-((1S,3S)-3-hydroxycyclopentyl)-2-oxo-1,2,3,5-tetrahydro-4H-benzo[e][1,4]diazepine-4-carboxamide], for which the AC1.4 stood at 1.76 µM.

With `CC[C@H](C)[C@H]1C(=O)Nc2ccc(F)cc2CN1C(=O)N[C@H]1C[C@H](O)C1` [Compound 354, (S)-3-((S)-sec-butyl)-7-fluoro-N-((1r,3S)-3-hydroxycyclobutyl)-2-oxo-1,2,3,5-tetrahydro-4H-benzo[e][1,4]diazepine-4-carboxamide], the AC1.4 was found to be 1.59 µM.

Turning to `CC[C@H](C)[C@H]1C(=O)Nc2ccc(F)cc2CN1C(=O)N[C@H]1C[C@@H](O)C1` [Compound 355, (S)-3-((S)-sec-butyl)-7-fluoro-N-((1s,3R)-3-hydroxycyclobutyl)-2-oxo-1,2,3,5-tetrahydro-4H-benzo[e][1,4]diazepine-4-carboxamide], the AC1.4 came to 1.49 µM.
